# Reference: patent US20240417729A1, “THERAPEUTIC TREATMENT FOR FRAGILE X-ASSOCIATED DISORDER” (University of Massachusetts, priority 2021, published 2024)
# Where “and” joins values, the source holds several entries; their conditions need not be identical. Equal values may be shown once. Entries after “also recorded” stand apart in the source; their conditions may differ. Read-outs that look alike come from different tables or passages of the source.
# Experiments:
# [1] = system: FMR1 transcripts (total, FMR1-205, FMR1-217); details: FXS iPSC-derived NSCs, reanalyzed from RNA-seq data of Vershkov et al., cited from earlier work
# FMRP [2] = test: Western blot of FMRP relative to GAPDH in FXS2 LCL (GM06897); assay type: cell-based, human; details: 5-AzadC 1 μM, 7 days
# Experimental: Antisense oligonucleotides (ASOs) were dissolved in ultrapure distilled water to a final concentration of 10 μM. Before use, the ASOs were heated to 55° C. for 15 minutes and cooled at room temperature. ASOs were added, individually or in combinations, to LCL cell lines at a final concentration of 80 nM or 160 nM using Lipofectamine RNAIMAX® Transfection Reagent (Thermo Fisher Scientific, 13778030) and incubated at 37° C. with 5% CO2 for 16 hours in reduced serum medium. RPMI 1640 medium (Sigma-Aldrich), supplemented with 15% fetal bovine serum (FBS) was added for a total of 72 hours. […]
# Cells were homogenized at 4° C. in RIPA buffer, with incubation on ice for 10 minutes and dissociation by pipetting. The extract was centrifuged at 13,200 rpm for 10 minutes at 4° C., and the supernatant collected. Protein concentration was determined using BCA reagent. Proteins (10 μg) were diluted in SDS-bromophenol blue reducing buffer with 40 mM DTT and analyzed using western blotting with the following antibodies: FMRP (Millipore, mAb2160, 1: 1,000), FMRP (Abcam, ab17722, 1:1,000) and GAPDH (14C10, Cell Signaling Technology, mAb 2118, 1:2,000), diluted in 1×TBST with 5% non-fat milk. […]
# Cells were homogenized at 4° C. in radioimmunoprecipitation assay (RIPA) lysis buffer with incubation on ice for 10 minutes and dissociation by pipetting. […] Protein concentration was determined by BCA reagent. […]
# FMRP [3] = test: Western blot of FMRP in FXS dermal fibroblasts (GM05131B); assay type: cell-based, human; details: 5-AzadC alone
# Experimental: Cells were homogenized at 4° C. in RIPA buffer, with incubation on ice for 10 minutes and dissociation by pipetting. The extract was centrifuged at 13,200 rpm for 10 minutes at 4° C., and the supernatant collected. Protein concentration was determined using BCA reagent. Proteins (10 μg) were diluted in SDS-bromophenol blue reducing buffer with 40 mM DTT and analyzed using western blotting with the following antibodies: FMRP (Millipore, mAb2160, 1: 1,000), FMRP (Abcam, ab17722, 1:1,000) and GAPDH (14C10, Cell Signaling Technology, mAb 2118, 1:2,000), diluted in 1×TBST with 5% non-fat milk. Membranes were washed three times for 10 minutes with 1×TBST and incubated with anti-rabbit or anti-mouse secondary antibodies (Jackson, 1:10,000) at room temperature for 1 hour. Membranes were washed three times for 10 minutes with 1×TBST, developed with ECL-Plus (Piece), and scanned with GE Amersham Imager.
# Cells were homogenized at 4° C. in radioimmunoprecipitation assay (RIPA) lysis buffer with incubation on ice for 10 minutes and dissociation by pipetting. The extract was centrifuged at 13,200 rpm for 10 minutes at 4° C., and the supernatant was collected. Protein concentration was determined by BCA reagent.
# FMRP [4] = test: Western blot of FMRP relative to GAPDH in FXS1 LCL (GM07365); assay type: cell-based, human; details: 5-AzadC 1 μM alone, 7 days
# Experimental: For each cell culture, 30×10^5 cells/mL were added in a final volume of 20 mL medium (RPMI 1640 medium (Sigma-Aldrich), supplemented with 15% FBS and 2.5% L-glutamine at 37° C. with 5% CO2) per T25 flask. 5-Aza-2′-deoxycytidine (5-AzaC) (Sigma-Aldrich, A3656) was added to the cell cultures (final concentration 1 μM) for 7 consecutive days. A 2 mM stock of 5-AzaC was made in DMSO. For each cell line, two independent treatments were performed (n=2). For the no treatment controls for each cell line, DMSO was added to the flasks. […]
# Cells were homogenized at 4° C. in RIPA buffer with incubation on ice for 10 minutes and dissociation by pipetting. […] Protein concentration was determined by BCA reagent. Proteins (10 μg) were diluted in SDS-bromophenol blue reducing buffer with 40 mM DTT and analyzed using western blotting on a 10% SDS-PAGE gel with the following antibodies: FMRP (Abcam, 1:2000) and GAPDH (Cell signaling, 1:2000) diluted in 1×TBST with 5% non-fat milk. […]
# Cells were homogenized at 4° C. in RIPA buffer, with incubation on ice for 10 minutes and dissociation by pipetting. […] Protein concentration was determined using BCA reagent. […]
# Cells were homogenized at 4° C. in radioimmunoprecipitation assay (RIPA) lysis buffer with incubation on ice for 10 minutes and dissociation by pipetting. […] Protein concentration was determined by BCA reagent.
# FMR1 RNA = details: FXS LCLs; 36 days of 5-AzadC; previous study; cited from earlier work
# FMR1-217 RNA [5] = test: RT-qPCR of FMR1-217 and full-length FMR1 in partially methylated FXS2 LCL (GM06897); assay type: cell-based, human; details: 5-AzadC 1 μM, 7 days, vs DMSO
# Experimental: (§1) One microgram (μg) of total RNA was primed with oligo(dT)20 to generate cDNA with a QuantiTect cDNA synthesis kit (Qiagen, #205311) using random hexamers (Table 3). qPCR was performed using the iTaq™ Universal SYBR® Green Supermix (BIO-RAD #1725122) on a QuantStudio 3 qPCR machine in duplicate.
# (§2) Antisense oligonucleotides (ASOs) were dissolved in ultrapure distilled water to a final concentration of 10 μM. Before use, the ASOs were heated to 55° C. for 15 minutes and cooled at room temperature. ASOs were added, individually or in combinations, to LCL cell lines at a final concentration of 80 nM or 160 nM using Lipofectamine RNAIMAX® Transfection Reagent (Thermo Fisher Scientific, 13778030) and incubated at 37° C. with 5% CO2 for 16 hours in reduced serum medium. RPMI 1640 medium (Sigma-Aldrich), supplemented with 15% fetal bovine serum (FBS) was added for a total of 72 hours. The cells were collected after 72 hours of ASO treatment for RNA and protein extraction.
# For each cell culture, 30×10^5 cells/mL were added to a final volume of 20 mL medium (RPMI 1640 medium (Sigma-Aldrich) supplemented with 15% fetal bovine serum (FBS) and 2.5% L-glutamine at 37° C. with 5% CO2) per T25 flask. 5-Aza-2′-deoxycytidine (5-AzadC) (Sigma-Aldrich, A3656) was added to the cell cultures (final concentration 1 μM) for 7 consecutive days. A 2 mM stock of 5-AzadC was made in DMSO. […]
# FMR1-217 RNA [6] = test: RT-qPCR of FMR1-217 and full-length FMR1 in fully methylated FXS1 LCL (GM07365) treated with 5-AzadC and/or ASOs; assay type: cell-based, human; details: 5-AzadC (5-AzaC) 1 μM alone, 7 days, vs DMSO
# Experimental: For each cell culture, 30×10^5 cells/mL were added in a final volume of 20 mL medium (RPMI 1640 medium (Sigma-Aldrich), supplemented with 15% FBS and 2.5% L-glutamine at 37° C. with 5% CO2) per T25 flask. 5-Aza-2′-deoxycytidine (5-AzaC) (Sigma-Aldrich, A3656) was added to the cell cultures (final concentration 1 μM) for 7 consecutive days. A 2 mM stock of 5-AzaC was made in DMSO. For each cell line, two independent treatments were performed (n=2). For the no treatment controls for each cell line, DMSO was added to the flasks. For samples with both 5-AzaC and ASO treatment, 80 nM ASOs or vehicle were added on Day 1 and either 5-AzaC or DMSO was added each day from Day 2 up to Day 9 at a final concentration of 1 μM. On Day 9 the cells were collected in 1×Phosphate buffered saline to proceed with RNA extraction or Western blotting.
# as §1, §2
# For each cell culture, 30×10^5 cells/mL were added to a final volume of 20 mL medium (RPMI 1640 medium (Sigma-Aldrich) supplemented with 15% fetal bovine serum (FBS) and 2.5% L-glutamine at 37° C. with 5% CO2) per T25 flask. 5-Aza-2′-deoxycytidine (5-AzadC) (Sigma-Aldrich, A3656) was added to the cell cultures (final concentration 1 μM) for 7 consecutive days. A 2 mM stock of 5-AzadC was made in DMSO. For each cell line, two independent treatments were performed (n=2). For the no treatment controls for each cell line, DMSO was added to the flasks. For samples with both 5-AzadC and ASO treatment, 80 nM or 160 nM ASOs or vehicle were added on Day 1 and either 5-AzadC or DMSO was added each day from Day 2 up to Day 9 at a final concentration of 1 μM. On Day 9 the cells were collected in 1× phosphate buffered saline to proceed with RNA extraction or Western blotting. […]
# FMR1-217 RNA [7] = test: RT-qPCR of FMR1-217 and FMR1 in FXS lung fibroblasts (GM07072) treated with 5-AzadC and ASOs 713/714; assay type: cell-based, human; details: fully methylated FMR1, 5-AzadC in the absence of ASOs
# Experimental: FIG. 15D Lung fibroblasts derived from a FXS individual (GM07072, Coriell Institute) were cultured with 5-AzadC for 8 days and then treated with ASOs 713/714 (100 nM each) for 72 hours prior to RNA and protein extraction. RT-qPCR analysis of FMR1-217, FMR1, and GAPDH RNAs in lung fibroblasts treated with DMSO, ASOs 713/714, 5-AzadC, or the ASOs 713/714 plus 5-AzadC. The amounts of FMR1-217 and FMR1 were made relative to GAPDH. (*p<0.05, **p<0.01, ***p<0.001, one way ANOVA with multiple comparisons test).
# FIG. 21D Lung fibroblasts derived from an FXS individual (GM07072, Coriell Institute) were cultured with 5-AzadC for 8 days and then treated with ASOs 713/714 (100 nM each) for 72 hours prior to RNA and protein extraction. RT-qPCR analysis of FMR1-217, FMR1, and GAPDH RNAs in lung fibroblasts treated with DMSO, ASOs 713/714, 5-AzadC, or the ASOs 713/714 plus 5-AzadC. The amounts of FMR1-217 and FMR1 were made relative to GAPDH (*P<0.05, **P<0.01, ***P<0.001, one-way ANOVA with multiple comparisons test).
compound,measurement,setting,value
"Nc1ncn([C@H]2C[C@H](O)[C@@H](CO)O2)c(=O)n1 [5-AzadC, 5-Aza-2′-deoxycytidine]",FMR1 (total) reads,[1]; biologic duplicate,9.9 TPM and 6.1 TPM
same,FMR1-217 reads,[1]; biologic duplicate,6.9 TPM and 3.9 TPM
same,FMR1-217 RNA-seq reads (in words),[1],clearly evident; also recorded: strong FMR1-217 expression; also recorded: reads corresponding to FMR1-217; also recorded: detected only in the 5-AzadC-treated samples
same,total FMR1 and FMR1-205 expression (in words),[1],strong total FMR1 and FMR1-205 expression; also recorded: expressed
same,FMR1-217 RNA-seq reads (in words),[1]; listed as 5-azadC,detected only in the 5-azadC-treated samples
same,"FMRP level (western blot, relative to GAPDH)",FMRP [2],In neither cell line did 5-AzadC treatment induce a significant increase in FMRP
same,FMRP level (western blot),FMRP [3],no effect
same,"FMRP level (western blot, relative to GAPDH)",FMRP [4],little or no FMRP; also recorded: increased FMR1-217 RNA levels but not FMRP; also recorded: In neither cell line did 5-AzadC treatment induce a significant increase in FMRP; also recorded: did not affect FMRP levels; also recorded: unaffected; also recorded: little FMRP; also recorded: modest increase; also recorded: modestly affected
same,FMRP level compared to that in TD cells,FMR1 RNA,even lower level
same,restoration of FMR1 RNA,FMR1 RNA,up to 40%
same,full-length FMR1 RNA level,FMR1-217 RNA [5],increase of only full-length FMR1 RNA
same,FMR1-217 (iso12) RNA level,FMR1-217 RNA [6],synthesis of both FMR1 and FMR1-217 RNAs; also recorded: increased FMR1-217 RNA levels; also recorded: significant increases; also recorded: expected increase; also recorded: resulted in the expression of FMR1-217 and full-length FMR1
same,full-length FMR1 (iso1) RNA level,FMR1-217 RNA [6],synthesis of both FMR1 and FMR1-217 RNAs; also recorded: significant increases; also recorded: expected increase; also recorded: resulted in the expression of FMR1-217 and full-length FMR1
same,FMR1-217 (iso12) RNA level,FMR1-217 RNA [6]; listed as 5-AzaC,increase in FMR1 iso12
same,full-length FMR1 (iso1) RNA level,FMR1-217 RNA [6]; listed as 5-AzaC,increase in FMR1 iso1
same,FMR1-217 RNA level,FMR1-217 RNA [7],increased
same,FMR1 RNA level,FMR1-217 RNA [7],increased
